Test results from ChEMBL document CHEMBL4376831, “Enhancing the Cell Permeability of Stapled Peptides with a Cyclic Cell-Penetrating Peptide” (J Med Chem, 2019).
One block for each molecule: values may come before it. Calls of active or inactive are those of the source. The rule behind the calls is not given here. *1 amine or outer side, *2 acyl side, *3 side chain or, on linkers, in order; H or OH if unused. Where a SMILES comes first, the peptide text is derived from it. Bridges are numbered along the chain shown (N, C = ends). [ ]: non-standard residue; d: D form. The star is where a group is joined. X2 = O=C(O)c1cc(C(=O)*)ccc1-c1c2ccc3cc(O)ccc3c2oc2c1ccc1cc(=O)ccc12; mXylylene = c1cc(C[*:1])cc(C[*:2])c1; AEEA = NCCOCCOCC(=O)O; βAla = NCCC(=O)O

Legend:
SW480 = experiment: Antiproliferative activity against human SW480 cells incubated for 72 hrs by MTT assay; assay type: functional, cell-based; settings: SW480, 72 h
MCF7 = experiment: Antiproliferative activity against human MCF7 cells incubated for 72 hrs by MTT assay; assay type: functional, cell-based
HeLa [1] = experiment: Cytotoxicity against human HeLa cells incubated for 72 hrs using FAM-labeled compound by MTT assay; assay type: cell-based
HeLa [2] = experiment: Induction of cell membrane disruption in human HeLa cells incubated for 4 hrs using FAM-labeled compound by LDH assay; assay type: cell-based
SJSA-1 [3] = settings: Homo sapiens
SJSA-1 [4] = experiment: Antiproliferative activity against human SJSA1 cells expressing wild-type p53 upto 20 uM incubated for 72 hrs by MTT assay; assay type: functional, cell-based
[5] = Permeability of the compound in human HeLa cells at 5 uM incubated for 2 hrs by flow cytometric analysis relative to CPP9; assay type: ADME, cell-based
SJSA-1 [6] = experiment: cells; settings: Homo sapiens, SJSA-1, 72 h

IC50 (SW480): > 20 µM
SMILES: CC[C@H](C)[C@@H]1NC(=O)[C@@H](NC(=O)[C@H](CCC(=O)O)NC(=O)[C@@H]2CCCN2C(=O)[C@H](Cc2ccc(O)cc2)NC(=O)CNC(=O)CNC(C)=O)CC(=O)NCCCC[C@@H](C(=O)N[C@@H](Cc2cnc[nH]2)C(=O)N[C@@H](CC(C)C)C(=O)N[C@@H](CCC(N)=O)C(=O)N[C@@H](CCCNC(=N)N)C(=O)N[C@H](C(=O)N[C@H](C(=O)N[C@@H](CC(C)C)C(=O)NCCOCCOCC(=O)NCCOCCOCC(=O)N[C@@H](CNC(=O)[C@H](CCCNC(=N)N)NC(=O)[C@H](CCCNC(=N)N)NC(=O)[C@H](CCCNC(=N)N)NC(=O)[C@H](CCCNC(=N)N)NC(=O)[C@H](CCCNC(=N)N)NC(=O)[C@H](CCCNC(=N)N)NC(=O)[C@H](CCCNC(=N)N)NC(=O)[C@H](CCCNC(=N)N)NC(=O)[C@H](CCCNC(=N)N)NC(C)=O)C(N)=O)[C@@H](C)CC)C(C)C)NC(=O)[C@H](CC(=O)O)NC(=O)[C@H](CC(C)C)NC1=O
Activity (MCF7): Active

SMILES: CC(=O)N[C@@H](Cc1ccc(O)cc1)C(=O)NCC(=O)N[C@@H](CCCNC(=N)N)C(=O)N[C@@H](CCCCN)C(=O)N[C@@H](CCCCN)C(=O)N[C@@H](CCCNC(=N)N)C(=O)N[C@@H](CCCNC(=N)N)C(=O)N[C@@H](CCC(N)=O)C(=O)N[C@@H](CCCNC(=N)N)C(=O)N[C@@H](CCCNC(=N)N)C(=O)N[C@@H](CCCNC(=N)N)C(=O)NCCCC[C@H](NC(=O)COCCOCCNC(=O)[C@H](CO)NC(=O)[C@@H](NC(=O)[C@H](CC(C)C)NC(=O)[C@H](CCC(N)=O)NC(=O)[C@@H]1CCCCNC(=O)C[C@H](NC(=O)[C@H](Cc2ccccc2)NC(=O)[C@@H](NC(=O)[C@H](CC(C)C)NC(C)=O)[C@@H](C)O)C(=O)N[C@@H](Cc2cnc[nH]2)C(=O)N[C@@H](Cc2ccc(O)cc2)C(=O)N[C@@H](Cc2c[nH]c3ccccc23)C(=O)N1)[C@@H](C)O)C(N)=O
Activity (HeLa [1]): Toxic
Activity (HeLa [2]): Toxic
Activity (SJSA-1 [3]): inactive

IC50 (SW480): > 20 µM
SMILES: CC[C@H](C)[C@@H]1NC(=O)[C@@H](NC(=O)[C@H](CCC(=O)O)NC(=O)[C@@H]2CCCN2C(=O)[C@H](Cc2ccc(O)cc2)NC(=O)CNC(=O)CNC(C)=O)CC(=O)NCCCC[C@@H](C(=O)N[C@@H](Cc2cnc[nH]2)C(=O)N[C@@H](CC(C)C)C(=O)N[C@@H](CCC(N)=O)C(=O)N[C@@H](CCCNC(=N)N)C(=O)N[C@H](C(=O)N[C@H](C(=O)N[C@@H](CC(C)C)C(=O)NCCOCCOCC(=O)NCCOCCOCC(=O)N[C@@H](CNC(=O)[C@H](CCCNC(=N)N)NC(=O)[C@H](CCCNC(=N)N)NC(=O)[C@H](CCCNC(=N)N)NC(=O)[C@H](CCC(N)=O)NC(=O)[C@H](CCCNC(=N)N)NC(=O)[C@H](CCCNC(=N)N)NC(=O)[C@H](CCCCN)NC(=O)[C@H](CCCCN)NC(=O)[C@H](CCCNC(=N)N)NC(=O)CNC(=O)[C@H](Cc2ccc(O)cc2)NC(C)=O)C(N)=O)[C@@H](C)CC)C(C)C)NC(=O)[C@H](CC(=O)O)NC(=O)[C@H](CC(C)C)NC1=O
Activity (MCF7): Active

SMILES: CC(=O)N[C@@H](CCCNC(=N)N)C(=O)N[C@@H](CCCNC(=N)N)C(=O)N[C@@H](CCCNC(=N)N)C(=O)N[C@@H](CCCNC(=N)N)C(=O)N[C@@H](CCCNC(=N)N)C(=O)N[C@@H](CCCNC(=N)N)C(=O)N[C@@H](CCCNC(=N)N)C(=O)N[C@@H](CCCNC(=N)N)C(=O)N[C@@H](CCCNC(=N)N)C(=O)NCCCC[C@H](NC(=O)COCCOCCNC(=O)[C@H](CO)NC(=O)[C@@H](NC(=O)[C@H](CC(C)C)NC(=O)[C@H](CCC(N)=O)NC(=O)[C@@H]1CCCCNC(=O)C[C@H](NC(=O)[C@H](Cc2ccccc2)NC(=O)[C@@H](NC(=O)[C@H](CC(C)C)NC(C)=O)[C@@H](C)O)C(=O)N[C@@H](Cc2cnc[nH]2)C(=O)N[C@@H](Cc2ccc(O)cc2)C(=O)N[C@@H](Cc2c[nH]c3ccccc23)C(=O)N1)[C@@H](C)O)C(N)=O
Activity (HeLa [1]): Toxic
Activity (HeLa [2]): Toxic
Activity (SJSA-1 [3]): inactive

SMILES: CC(=O)N[C@@H](CC(C)C)C(=O)N[C@H](C(=O)N[C@@H](Cc1ccccc1)C(=O)N[C@H]1CC(=O)NCCCC[C@@H](C(=O)N[C@@H](CCC(N)=O)C(=O)N[C@@H](CC(C)C)C(=O)N[C@H](C(=O)N[C@@H](CO)C(=O)NCCOCCOCC(=O)N[C@@H](CCCCN)C(N)=O)[C@@H](C)O)NC(=O)[C@H](Cc2c[nH]c3ccccc23)NC(=O)[C@H](Cc2ccc(O)cc2)NC(=O)[C@H](Cc2cnc[nH]2)NC1=O)[C@@H](C)O (Ac-LTFDHYWKQLTS[AEEA]K-NH2; lactam 4-8)
Activity (SJSA-1 [4]): inactive

permeability [5]: 2.5%
SMILES: CC[C@H](C)[C@@H]1NC(=O)[C@@H](NC(=O)[C@H](CCC(=O)O)NC(=O)[C@@H]2CCCN2C(=O)[C@H](CC(N)=O)NC(=O)[C@H](CCC(=O)O)NC(=O)CCNC(=O)c2ccc(-c3c4ccc5cc(O)ccc5c4oc4c3ccc3cc(=O)ccc34)c(C(=O)O)c2)CSCc2cccc(c2)CSC[C@@H](C(=O)N[C@@H](Cc2cnc[nH]2)C(=O)N[C@H](C(=O)N[C@@H](CCC(N)=O)C(=O)N[C@@H](CCCNC(=N)N)C(=O)N[C@H](C(=O)N[C@@H](CCSC)C(N)=O)C(C)C)C(C)C)NC(=O)[C@H](CC(=O)O)NC(=O)[C@H](CC(C)C)NC1=O ({X2-βAla}-ENPECILDCHVQRVM-NH2; linker 5-9 via mXylylene)

permeability [5]: 8.9%
SMILES: CC[C@H](C)[C@@H]1NC(=O)[C@@H](NC(=O)[C@H](CCC(=O)O)NC(=O)[C@@H]2CCCN2C(=O)[C@H](CC(N)=O)NC(=O)CCNC(=O)c2ccc(-c3c4ccc5cc(O)ccc5c4oc4c3ccc3cc(=O)ccc34)c(C(=O)O)c2)CSCc2cccc(c2)CSC[C@@H](C(=O)N[C@@H](Cc2cnc[nH]2)C(=O)N[C@H](C(=O)N[C@@H](CCC(N)=O)C(=O)N[C@@H](CCCNC(=N)N)C(=O)N[C@H](C(=O)N[C@@H](CCSC)C(N)=O)C(C)C)C(C)C)NC(=O)[C@H](CC(=O)O)NC(=O)[C@H](CC(C)C)NC1=O ({X2-βAla}-NPECILDCHVQRVM-NH2; linker 4-8 via mXylylene)

EC50 (SJSA-1 [6]): 4.2 µM
SMILES: COc1ccc(C2=N[C@@H](c3ccc(Cl)cc3)[C@@H](c3ccc(Cl)cc3)N2C(=O)N2CCNC(=O)C2)c(OC(C)C)c1 [NUTLIN-3]
